Data taken from US6482436B1, “Magnetically responsive composition” (FeRx Incorporated, priority 1993, dated 2002).
≈ marks a conversion by molar mass, not a printed value.

Columns and labels:
[1] = Adsorption curves and adsorption constants of pharmaceutical agents on iron:carbon carrier particles; assay type: physicochemical
Experimental: Adsorption upon the particles of various types of pharmaceutical agents at a range of concentrations of the pharmaceutical agent in the absorption solution was performed to determine the absorption curves and absorption constants for each compound as follows: A 16-mer anti-C-Myc oligonucleotide useful in antisense gene-directed therapy is an all phosphorothioate oligodeoxynucleotide, fluorescein-labeled at 5′ end (Macromolecular Resources, Fort Collins, Colo.). […] Unbound drug in adsorption supernatants was determined from the fluorescein fluorescence (Exc. 495 nm, em. 549 nm) using a standard curve. Hematoporphyrin dihydrochloride (Sigma Chemical, USA, H-1875, Lot #23H0879) is a photosensitizer useful in tumor therapy. The compound accumulates by biological processes in certain types of tumor tissue. Upon exposure to light, such as provided by a laser, the compound undergoes a chemical transformation to produce oxygen singlets that are toxic to cells in which it has accumulated. A stock adsorption solution was prepared and drug concentration was determined by spectrophotometry according to G. Garbo et al. Anal. […] The adsorption equation determined by computer analysis using commercially available software was: […] 6-Mercaptopurine sodium salt (provided by Dr. Gruber, Burroughs Wellcome, Lot #7P2774) is an anti-inflammatory agent. […] Drug concentration in adsorption supernatants was determined by spectrophotometry (standard curve: […] Drug concentrations in adsorption supernatants determined by spectrophotometry yielded the following equation for the concentration curve: […] Drug concentration in adsorption supernatants as determined by spectrophotometry yield the following equation for the concentration curve: […] Concentration was determined by absorbance at 253 nm (λmax=253 nm in saline solution).

[2] = Release of adsorbed Re into saline over 24 hours; assay type: physicochemical
Experimental: (§1) An adaptation of a colorimetric Re assay used in the field of metallurgy was used to determine the adsorption of the Re onto carrier particles having a 70:30 iron:carbon ratio. In brief, a 0.1 to 0.5 ml sample was placed in a solution containing 1.0 ml of HCl, 1.3 ml of −α furildoxime (6% in acetone), 0.5 ml of 10% stannous chloride and sufficient water to make 5.0 ml. The mixture was heated to 45° C. for 20 minutes and allowed to cool to room temperature. The absorbance of Re in the solution was measured at 532 nm. The sensitivity of the assay was to about 5 mcg Re. […] As with other drugs, the % binding of Re in the adsorption medium decreases as the Re to carbon ratio increases. […] Release over 24 hours of the Re into physiological saline at ambient temperature from the various carbons preloaded with adsorbed Re was 50% by weight.
Less than 10% of the Re was released upon incubation under efflux conditions in saline over 24 hours. The low binding of Re to the carrier particles is consistent with the low binding of other charged, small ionic molecules to activated carbon as compared with the high affinity binding of hydrophobic aromatic molecules. These findings are consistent with use of the carrier particles of the invention with adsorbed Re or Tc as imaging and therapeutic agents.

[3] = Re binding to a series of carbons (colorimetric Re assay); assay type: physicochemical; conditions: ambient temperature
Experimental: as §1

[4] = Effect of adsorption medium composition on Dox binding to carrier particles; assay type: physicochemical; conditions: six test adsorption media; particles first in viscosity agent, Dox/saline added later
Experimental: Additional studies were conducted to compare the effect of the composition of the adsorption solution on the binding of the Dox to carrier particles having an iron:carbon ratio in the range 60:40 to 80:20. The following six test adsorption media compositions were formulated to provide sufficient viscosity to keep the carrier particles physically separate during adsorption of the Dox. The particles were first placed in the viscosity agent and the Dox/saline solution was later added.
1. 10% mannitol; 2% sodium carboxymethyl cellulose (CMC) (medium viscosity); 2% polyvinyl pyrrolidone (PVP in 50 mM citrate phosphate buffer
2. 5% mannitol; 2% CMC; 2% PVP in 50 mM citrate phosphate buffer.
3. 5% mannitol; 2% CMC; 2% PVP; 5% sorbitol in 50 mM citrate phosphate buffer.
4. 10% mannitol; 1% CMC; 2% PVP (K15) in 10 mM potassium phosphate buffer (pH 7.4).
5. 10% mannitol; 1% sodium CMC; potassium phosphate buffer (pH 7.4).
6. 5% sorbitol; 1% sodium CMC; 2% PVP (K1 5); 5% mannitol; in potassium phosphate buffer (pH 7.4)

tumor cells in culture = assay: In vitro cytotoxicity evaluation with magnetic field retention of carrier particles; assay type: cell-based; conditions: Homo sapiens; released paclitaxel: with or without magnet
Experimental: The IC50 for free paclitaxel alone was identical (5 ng/mL) to paclitaxel released from the carrier particles with or without magnet (5 ng/mL).

[5] = system: human squamous carcinoma cell line, SCC-9; assay: Long-term CF clonogenic assay; assay type: cell-based; conditions: colonies after 2-3 weeks
Experimental: A separate long-term CF clonogenic assay was evaluated concurrently. In this assay, cells were plated on 35 mm petri dishes and exposed to drug and controls as outlined above. Treated cells were incubated for 2-3 weeks to allow time for colonies to establish. These colonies were fixed in 2% acetic acid and 8% ethanol and stained with crystal violet. The colonies were counted under a Bella Glass Plate Reader.

[6] = system: carcinosarcoma Walker 256; assay: Treatment of Walker 256 carcinosarcoma under the tail skin of rats: life span and tumor dissolution; assay type: in vivo, rats of the Wistar Line; conditions: group II; water solution i.v. 2 mg/kg during 5 days; versus control group I (21±1.5 days); P<0.05
Experimental: Tests were carried out on male rats of the Wistar Line (bred at Stolbovaya Station of the USSR Academy of Medical Sciences). The rats were infused with carcinosarcoma Walker 256 under the tail skin. When the tumorous volume averaged 986±98 mm^3 the animals were divided into 4 groups, 10 rats in each. The first group (group I) was a control group, and groups II through IV were experimental groups.
The animals in group II were given intravenous injections of a water solution of rubomicine in the amount of 2 mg/kg of body weight during 5 days (the model of traditional use of such anti-cancerous preparations in clinics). The rats in group III were injected with a suspension of ferrocarbon dispersion produced by the previously known method described in European Patent Office Publication No. 0 451 299 A1. The particles comprised iron/carbon in a volume percent ratio of 60:40. The dosage of ferrocarbon particles was 160 mg/kg of body weight, and the dosage of adsorbed rubomicine thereon was 3.2 mg/g of particles. This suspension was injected into the tail vein after placing on the surface of the tumor a permanent magnet with a magnetic field intensity of 6000 oersteds. Localization of the suspension in the tumorous growth zone under control of the externally placed magnetic field was monitored by x-ray pictures. […]

[7] = Octanol/buffer (pH 7.4) partition coefficient; assay type: physicochemical
Description: (§2) Certain porphyrins are photosensitizing compounds useful in photodynamic therapy against tumors. […] Several classes of photosensitizers were screened for comparative binding to iron:carbon particles of various composition. The wavelength near the activation wavelength (often the λmax) of a particular photosensitizer was used for quantitative drug measurements. […] The photosensitizers tested were hematoporphyrin derivative (HPD); benzoporphyrin derivative monoacid A (BPD-ma); Photofrin® porfimer sodium (PF2); and clorin e6. For the binding studies, 10 mg of carbon or 50 mg of iron:carbon particles were optimum. An octanol/buffer (pH 7.4) partition coefficient for the four compounds was as follows: HPD=1; chlorin e6=1.1; PF2=0.1≧; and BPD-ma=4000>.

[8] = Comparative binding of photosensitizers to iron:carbon particles; assay type: physicochemical; conditions: 80 mcg/ml (0.11 mM) in PBS pH 7.4, 50 mg particles
Description: as §2

[9] = Binding and release of BPD-ma with prototype iron:carbon carrier particles (MTCs); assay type: physicochemical; conditions: from a 10-fold increase in the initial concentration of the drug; isopropanol medium, 18 hours
Experimental: In order to achieve higher loading levels of BPD-ma, the binding capacity and fractional binding of the drug to four prototype iron:carbon carrier particles (MTCs, or, magnetic targeted compounds) was tested using 1.4 mM drug in isopropanol (with 0.5% 0.02 M acetic acid) as the adsorption medium and a longer equilibration period of 18 hours.

[10] = 80:20 Type K, 0.9% NaCl, pH 10.4, equilibration 2 hrs
[11] = 75:25 Type K, Saline solution, equilibration 0.5 hr

Compound	octanol/buffer partition coefficient [7]	% binding, % ([8]; iron:carbon 30:70 Type A)	% binding, mg/mg % ([8]; iron:carbon 30:70 Type A)	% binding, % ([8]; iron:carbon 30:70 Type E)	% binding, mg/mg % ([8]; iron:carbon 30:70 Type E)	further results
Sc1ncnc2nc[nH]c12.[Na] [6-MP Mercaptopurine, 6-Mercaptopurine sodium salt]						Adsorption constant [1, 10]: 0.24 ± 0.064 (mg/ml)^−1; Maximum adsorption (% of carrier weight) [1, 10]: 11.0 ± 0.97 % of carrier weight
C[C@@H]1[C@H](O)[C@@H](C)/C=C/C=C/C=C/C=C/C=C/C=C/C=C/[C@H](O[C@@H]2O[C@H](C)[C@@H](O)[C@H](N)[C@@H]2O)C[C@@H]2O[C@](O)(C[C@@H](O)C[C@@H](O)[C@H](O)CC[C@@H](O)C[C@@H](O)CC(=O)O[C@H]1C)C[C@H](O)[C@H]2C(=O)O [Amphotericin B]						Maximum adsorption (% of carrier weight) ([1]; 80:20 Type K, 0.9% NaCl pH 12 (KOH), equilibration 24 hrs): 10.4 ± 0.55 % of carrier weight
CC[C@@]1(O)C(=O)OCc2c1cc1n(c2=O)Cc2cc3ccccc3nc2-1 [Camptothecin]						Adsorption constant [1, 11]: 521 (mg/ml)^−1; Maximum adsorption (% of carrier weight) [1, 11]: 11 % of carrier weight; Maximum adsorption (% of carrier weight) ([1]; 80:20 Type K, C/E 1:1 (chloroform:ethanol), equilibration 3 hrs, footnote: Below detection limit): 0^2 % of carrier weight
[Re] [Re, rhenium]						Re released over 24 hours ([2]; from iron:carbon carrier particles, efflux conditions in saline): Less than 10%; release of Re over 24 hours ([2]; from the various carbons preloaded with Re, physiological saline, ambient temperature): 50 % by weight; Re binding to a series of carbons ([3]; 30 mg carbon in the adsorption medium): about 35%; Re binding to a series of carbons ([3]; 180 mg carbon in the adsorption medium): about 90%
COc1cccc2c1C(=O)c1c(O)c3c(c(O)c1C2=O)C[C@@](O)(C(=O)CO)C[C@@H]3O[C@H]1C[C@H](N)[C@H](O)[C@H](C)O1 [doxorubicin]						adsorption of Dox to the carrier particles by adsorption medium [4]: highest adsorption of Dox to the carrier particles was obtained using formulae 4, 5, and 6
CC(=O)O[C@H]1C(=O)[C@@]2(C)[C@H]([C@H](OC(=O)c3ccccc3)[C@]3(O)C[C@H](OC(=O)[C@H](O)[C@@H](NC(=O)c4ccccc4)c4ccccc4)C(C)=C1C3(C)C)[C@]1(OC(C)=O)CO[C@@H]1C[C@@H]2O [paclitaxel]						IC50 (tumor cells in culture): 5 ng/mL (≈ 5.86 nM); IC50 [5]: 3 ng/mL (≈ 3.51 nM)
COc1cccc2c1C(=O)c1c(O)c3c(c(O)c1C2=O)C[C@@](O)(C(C)=O)C[C@@H]3O[C@H]1C[C@H](N)[C@H](O)[C@H](C)O1 [rubomicine]						life span following treatment increased by an average of [6]: 4.5 days

More lines, main results first:

octanol/buffer partition coefficient [7]	Compound	% binding, % ([8]; iron:carbon 30:70 Type A)	% binding, mg/mg % ([8]; iron:carbon 30:70 Type A)	% binding, % ([8]; iron:carbon 30:70 Type E)	% binding, mg/mg % ([8]; iron:carbon 30:70 Type E)	further results
≤ 0.1	Photofrin® porfimer sodium [PF2]	11.4%	0.13 mg/mg %	7.2%	0.08 mg/mg %	
> 4000	benzoporphyrin derivative monoacid A [BPD-ma]	30.1%	0.33 mg/mg %	23.0%	0.25 mg/mg %	increase in binding capacity [9]: 30 fold
1.1	clorin e6	69.9%	0.8 mg/mg %	68.8%	0.7 mg/mg %	
1	hematoporphyrin derivative [HPD]	41.9%	0.5 mg/mg %	37.0%	0.4 mg/mg %	
